# According to US20050233991A1, “Methods and compositions for the identification, assessment, and therapy of small cell lung cancer” (priority 2002, published 2005):
# What was measured:
# [1] = test system: NCI-H446 cells; test: Phase contrast microscopy of SDF-1α induced adhesion/morphology with LY294002; assay type: cell-based, human; settings: SDF-1α 100 ng/ml, 24 hour time point
# Protocol: (§1) Phase-contrast photomicrographs were taken at various time points (0, 1, 2, 4, 8, and 24 hours). For LY294002 studies, starved NCI-H446 cells (1×10^6) were resuspended in serum free media and placed onto a 35 mm tissue culture dish (Becton Dickinson Labware).
# Phase-contrast microscopy pictures were taken at the 24 hour time point. Most of the untreated cells kept their rounded shape and formed clusters, and nearly half of them attached weakly to the bottom of the dish.
# [2] = test system: NCI-H69 cells; test: Phase contrast microscopy of morphological changes with SDF-1α, SCF and STI571; assay type: cell-based, human; settings: for morphological change of NCI-H69 cells in response to ligand: 100 ng/ml, pictures after 8 hours
# Protocol: as §1
# It has not been shown previously that there is a functional interaction between CXCR4 and c-Kit in SCLC. […] Phase-contrast microscopy pictures were then taken after 8 hours. Morphological changes began to be apparent at 4 hours, and the changes plateaued between 8 and 24 hours. […] Inhibition of the active c-Kit receptor by STI571 may lead to the inhibition of other active receptors such as CXCR4.
# [3] = test system: Akt and p70 S6 kinase; test: Immunoblotting of Akt and p70 S6 kinase phosphorylation; assay type: cell-based, human; settings: for time to phosphorylation of Akt (Ser 473) and p70 S6 kinase (Thr 389): 50 ng/ml, serum starved NCI-H69 cells
# Protocol: (§2) Cells were lysed in lysis buffer (20 mM Tris pH 8.0, 150 mM NaCl, 10% glycerol, 1% NP-40, 0.42% NaF) containing protease inhibitors (1 mM PMSF, 1 mM Na3VO4, 5 μg/ml aprotinin, 5 μg/ml leupeptin). Cell lysates were separated by 7.5% SDS-PAGE under reducing conditions and transferred to nitrocellulose membranes (Schleicher & Schuell, Dassel, Germany). Proteins were detected by immunoblotting using an enhanced chemiluminescence technique (NEN Life Science Products, Mass.). Rabbit polyclonal antibodies against c-Kit (C-19; Santa Cruz Biotechnology, Inc., Santa Cruz, Calif.), Akt, Akt (pSer 473), Akt (pThr 308), p70 S6 kinase, and p70 S6 kinase (pThr 389) (Cell Signaling Technology, Inc., Beverly, Mass.) and monoclonal antibodies against […]-actin (AC-15; Sigma, St. Louis, Mo.) and phosphotyrosine (4G10, UBI, Lake Placid, N.Y.) were used.
# (§3) The activity of the PI3-K downstream targets Akt and p70 S6 kinase is regulated through critical serine/threonine (Ser/The) residues (Franke, T. F. et al. (1997) Cell 88:435-7; Pullen, N. and Thomas, G. (1997) FEBS Lett 410:78-82). […] Cell lysates were applied to a 7.5% SDS-PAGE gel and transferred to nitrocellulose membrane. The membrane was probed with monoclonal antibodies against phosphotyrosine (4G10) and β-actin and polyclonal antibodies against Akt (pSer 473) and p70 S6 kinase (S6K) (pThr 389). […] On the other hand, maximal tyrosine phosphorylation of proteins at 60-90 kDa and 110-145 kDa occurred within 2.5-7.5 minutes in response to SCF.
# Lysates were processed as described above in Example 6, and the membrane was probed with the phospho-specific or regular antibodies against Akt and p70 S6 kinase, as well as with an anti-c-Kit antibody. […] The expression levels of Akt, p70 S6 kinase, and c-Kit were not affected by any of these treatments.
# [4] = molecular target: human c-Kit (human); test: cell-based or functional assay
# [5] = test system: tyrosine phosphorylation of cellular proteins in NCI-H69 cells; test: Immunoblotting of tyrosine phosphorylation of cellular proteins (4G10); assay type: cell-based, human
# Protocol: as §2, §3
# [6] = test system: NCI-H69 cells; test: Cell viability assay (trypan blue dye exclusion); assay type: cell-based, human; settings: 100 ng/ml; for increase in viable cell number: 10% FCS, 72 hours; for effect on cell survival: without serum
# Protocol: Ten small cell lung cancer (SCLC) cell lines (NCI-H69, NCI-H82, NCI-H128, NCI-H146, NCI-H209, NCI-H249, NCI-H345, NCI-H446, NCI-H510, and NCI-H526) were purchased from the American Type Culture Collection (Rockville, Md.) and maintained in RPMI 1640 medium (Cellgro) supplemented with 10% (v/v) fetal calf serum (FCS). MO7e cells were maintained as described in Sattler, M. et al. (1997) J. Biol. Chem. 272:10248-53. All cell lines were incubated at 37° C. in a 5% CO2 humidified atmosphere and harvested during log phase growth. Cells were deprived of growth factors by incubation in RPMI 1640 medium containing 0.5% (w/v) bovine serum albumin (BSA) (Sigma, St. Louis, Mo.) for 18 hours. In some experiments, cells were treated with 5 μM STI571 (Gleevec™, Novartis Pharmaceuticals, Basel, Switzerland) or 25 μM LY294002 (Sigma).
# Viable cells were counted by trypan blue dye exclusion test every 24 hours up to 72 hours. Data was plotted as the mean±SD from three independent experiments. Student's t test was used for the statistical analysis of viable cell number under individual conditions. Differences were considered statistically significant at p<0.05.
compound,measurement,setting,value
"O=c1cc(N2CCOCC2)oc2c(-c3ccccc3)cccc12 [LY294002, reference compound]",cells floating with rounded shapes in spite of SDF-1α treatment,[1]; LY294002 25 μM,more than 90%
Cc1ccc(NC(=O)c2ccc(CN3CCN(C)CC3)cc2)cc1Nc1nccc(-c2cccnc2)n1 [STI571],inhibition of the morphological changes,[2]; STI571 5 μM,only in the presence of SCF
same,neurite like projections induced by SDF-1α alone in the presence of STI571,"[2]; STI571 5 μM, SDF-1α 100 ng/ml",still formed
same,neurite like structures in STI571 treated cells stimulated with both SDF-1α and SCF,"[2]; STI571 5 μM, SDF-1α 100 ng/ml and SCF 100 ng/ml",could not form any neurite like structures
same,effect of pre-treatment on SCF induced phosphorylation of Akt and p70 S6 kinase,"[3]; STI571 5 μM or LY294002 25 μM overnight, then 50 ng/ml SCF 15 minutes, NCI-H69 cells",inhibited
Recombinant human SCF (stem cell factor) (from UniProt P21583 26-189) (ligand),"cell proliferation of NCI-H69 cells (viable cell count, trypan blue), 10% FCS, 100 ng/ml SCF, 48 hours, increase compared with untreated control",[4],21.5%
same,"concentration for optimal phosphorylation of cellular proteins in NCI-H69 cells (immunoblot, dose-response)",[4],10 ng/mL
same,"time to phosphorylation of Akt (Ser 473) and p70 S6 kinase (Thr 389) in NCI-H69 cells, 50 ng/ml SCF",[4],< 2.5 min
"SCF: Recombinant human stem cell factor, natural ligand of c-Kit",concentration giving optimal phosphorylation of cellular proteins (dose-response studies),[5]; NCI-H69 cells,≥ 10 ng/mL
same,time of maximal tyrosine phosphorylation of proteins at 60-90 kDa and 110-145 kDa,"[5]; SCF 50 ng/ml, serum starved NCI-H69 cells",2.5-7.5 minutes
same,increase in viable cell number,[6],16.5%
same,"cell proliferation induced, as compared with untreated control","[6]; media containing 10% FCS, 48 hours",21.5%
same,effect on cell survival,[6],neither SCF nor SDF-1α showed any effect
same,morphological change of NCI-H69 cells in response to ligand,[2],Neurite like actin formations were observed
same,time to phosphorylation of Akt (Ser 473) and p70 S6 kinase (Thr 389),[3],≤ 2.5 min
"SDF-1α: Recombinant human SDF-1α, natural ligand for CXCR4, member of the CXC chemokine family",time to tyrosine phosphorylated bands between 70-120 kDa,"[5]; SDF-1α 50 ng/ml, serum starved NCI-H69 cells",≤ 15 min
same,adhesion and morphology of cells with SDF-1α,[1],almost all cells tightly adhered to the bottom of the dish and neurite like projections were induced in many cells
same,increase in viable cell number,[6],15.5%
same,effect on cell survival,[6],neither SCF nor SDF-1α showed any effect
same,morphological change of NCI-H69 cells in response to ligand,[2],more apparent as projections
same,time to phosphorylation of Akt (Ser 473) and p70 S6 kinase (Thr 389),[3],≤ 5 min
